Reference: patent publication US20230265151A1, “GIP/GLP1 CO-AGONIST COMPOUNDS” (priority 2020, published 2023)
Read-outs that look alike come from different tables or passages of the source.

What was measured:
Assay type in all cases: cell-based
hGCGR = molecular target: T1, hGCGR (Homo sapiens, UniProt P47871); experiment: Functional cAMP formation (HTRF) in HEK-293 clonal cells expressing hGCGR, 0.1% bovine casein, without or with 1.0% human serum albumin; conditions: 37° C.
T1 construct: expressed in transfected cells
T1 sequence (P47871 26-477): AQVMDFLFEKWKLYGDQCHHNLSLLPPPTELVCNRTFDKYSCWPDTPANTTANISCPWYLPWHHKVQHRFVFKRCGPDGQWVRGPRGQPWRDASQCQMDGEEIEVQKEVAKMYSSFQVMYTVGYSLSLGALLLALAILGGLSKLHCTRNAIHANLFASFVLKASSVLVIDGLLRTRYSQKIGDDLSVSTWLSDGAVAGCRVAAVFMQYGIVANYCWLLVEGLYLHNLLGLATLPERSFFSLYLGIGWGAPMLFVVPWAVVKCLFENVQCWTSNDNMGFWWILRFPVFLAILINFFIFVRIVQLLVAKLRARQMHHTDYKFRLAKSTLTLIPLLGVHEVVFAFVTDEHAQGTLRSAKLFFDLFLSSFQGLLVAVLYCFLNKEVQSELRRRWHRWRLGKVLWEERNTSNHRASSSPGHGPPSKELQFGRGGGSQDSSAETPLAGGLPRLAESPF
Summary of the method: (§1)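 Cells were stimulated with peptide for 30 min at 37° C, then lysed in buffer carrying cAMP-d2 and anti-cAMP Eu3+-cryptate for a competitive HTRF read after at least 60 min at room temperature. The 665/620 nm ratio was converted to nM cAMP against a standard curve.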

hGLP-1R = hGLP-1R (Homo sapiens, UniProt P43220); experiment: Functional cAMP formation (HTRF) in HEK-293 clonal cells expressing hGLP-1R, 0.1% bovine casein, without or with 1.0% human serum albumin; set-up: expressed in transfected cells; conditions: for Emax: percent of maximal response to GLP-1(7-36)NH2; for EC50: hGLP-1R EC50, nM (SEM, n), cAMP, 0.1% bovine casein (no human serum albumin), geometric mean
Sequence of hGLP-1R (P43220 24-463): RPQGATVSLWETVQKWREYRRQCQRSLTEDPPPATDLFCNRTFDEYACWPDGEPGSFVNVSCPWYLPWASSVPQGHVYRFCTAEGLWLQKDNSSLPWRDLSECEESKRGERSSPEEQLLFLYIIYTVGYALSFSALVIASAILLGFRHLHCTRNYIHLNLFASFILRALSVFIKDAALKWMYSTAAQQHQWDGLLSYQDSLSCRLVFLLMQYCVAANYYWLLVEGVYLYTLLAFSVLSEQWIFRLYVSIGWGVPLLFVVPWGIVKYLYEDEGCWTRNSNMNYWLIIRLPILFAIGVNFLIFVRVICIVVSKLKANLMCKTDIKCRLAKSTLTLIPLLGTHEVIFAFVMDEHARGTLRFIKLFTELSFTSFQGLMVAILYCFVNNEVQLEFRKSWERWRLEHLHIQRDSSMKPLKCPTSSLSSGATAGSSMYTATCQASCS
Summary of the method: as §1

hGIPR = molecular target: T2, hGIPR (Homo sapiens, UniProt P48546); experiment: Functional cAMP formation (HTRF) in HEK-293 clonal cells expressing hGIPR, 0.1% bovine casein, without or with 1.0% human serum albumin; conditions: for Emax: percent of maximal response to GIP(1-42)NH2; for EC50: geometric mean
T2 construct: expressed in transfected cells
T2 sequence (P48546 22-466): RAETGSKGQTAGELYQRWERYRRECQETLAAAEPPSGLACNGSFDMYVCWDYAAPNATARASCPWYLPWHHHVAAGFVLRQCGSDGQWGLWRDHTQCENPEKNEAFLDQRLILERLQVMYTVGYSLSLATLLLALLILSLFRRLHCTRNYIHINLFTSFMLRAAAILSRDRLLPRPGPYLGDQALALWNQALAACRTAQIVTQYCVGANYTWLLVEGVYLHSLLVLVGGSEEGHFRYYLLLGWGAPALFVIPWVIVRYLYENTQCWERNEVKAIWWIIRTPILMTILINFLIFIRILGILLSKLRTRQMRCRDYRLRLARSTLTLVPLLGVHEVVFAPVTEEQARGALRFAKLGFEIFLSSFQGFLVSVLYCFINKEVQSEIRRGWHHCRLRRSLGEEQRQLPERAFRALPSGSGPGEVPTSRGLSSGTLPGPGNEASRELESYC
Summary of the method: as §1

[1] = hGCGR EC50, nM (SEM, n), 0.1% bovine casein and 1.0% human serum albumin, geometric mean
[2] = hGCGR EC50, nM (SEM, n), cAMP, 0.1% bovine casein (no human serum albumin), geometric mean
[3] = HEK293, read-out: hGLP-1R Emax, % ± SEM, 0.1% bovine casein and 1.0% human serum albumin, 37° C.
[4] = HEK293, read-out: hGLP-1R Emax, % ± SEM, cAMP, 37° C., 0.1% bovine casein, arithmetic mean
[5] = HEK293, read-out: hGIPR Emax, % ± SEM, cAMP, 37° C., 0.1% bovine casein, arithmetic mean
[6] = hGIPR EC50, nM (SEM, n), cAMP, 37° C., 0.1% bovine casein (no human serum albumin)

SMILES | EC50 (hGCGR; [1]) | EC50 (hGCGR; [2]) | Emax (hGLP-1R; [3]) | Emax (hGLP-1R; [4]) | EC50 (hGLP-1R; 37° C.) | Emax (hGIPR; [5]) | EC50 (hGIPR; [6]) | Emax (hGIPR; HEK293, read-out: hGIPR Emax, % ± SEM, 0.1% bovine casein and 1.0% human serum albumin, 37° C.) | EC50 (hGCGR; 0.1% bovine casein and 1.0% human serum albumin, geometric mean, read-out: hGCGR EC50, nM (SEM, n)) | EC50 (hGCGR; cAMP, 0.1% bovine casein (no human serum albumin), geometric mean, read-out: hGCGR EC50, nM (SEM, n)) | Emax (hGLP-1R; HEK293, 0.1% bovine casein and 1.0% human serum albumin, 37° C., read-out: hGLP-1R Emax, % ± SEM) | EC50 (hGIPR; 0.1% bovine casein and 1.0% human serum albumin, 37° C., read-out: hGIPR EC50, nM (SEM, n)) | Emax (hGIPR; HEK293, 0.1% bovine casein and 1.0% human serum albumin, 37° C., read-out: hGIPR Emax, % ± SEM) | EC50 (hGCGR; hGCGR EC50, nM (SEM, n), cAMP, 0.1% bovine casein and 1.0% human serum albumin, geometric mean (SEM, n)) | Emax (hGIPR; HEK293, read-out: hGIPR Emax, % ± SEM, cAMP, 37° C., 0.1% bovine casein and 1.0% human serum albumin)
CC[C@H](C)[C@H](NC(=O)[C@H](CCCN)NC(=O)[C@H](CC(=O)O)NC(=O)[C@H](CC(C)C)NC(=O)[C@](C)(CC(C)C)NC(=O)[C@@H](NC(=O)C(C)(C)NC(=O)[C@@H](NC(=O)[C@H](CC(=O)O)NC(=O)[C@H](CO)NC(=O)[C@@H](NC(=O)[C@](C)(Cc1ccccc1F)NC(=O)[C@@H](NC(=O)CNC(=O)[C@H](CCC(=O)O)NC(=O)C(C)(C)NC(=O)[C@@H](N)Cc1ccc(O)cc1)[C@@H](C)O)[C@@H](C)O)C(C)C)[C@@H](C)CC)C(=O)N[C@@H](C)C(=O)N[C@@H](CCC(N)=O)C(=O)NC(C)(C)C(=O)N[C@@H](CCC(=O)O)C(=O)N[C@@H](Cc1ccccc1)C(=O)N[C@H](C(=O)N[C@@H](CCCCNC(=O)COCCOCCNC(=O)COCCOCCNC(=O)CC[C@H](NC(=O)CCCCCCCCCOc1ccc(C(=O)O)cc1)C(=O)O)C(=O)N[C@@](C)(Cc1ccc(O)cc1)C(=O)N[C@@H](CC(C)C)C(=O)N[C@H](C(=O)N[C@@H](CCCCNC(=O)COCCOCCNC(=O)COCCOCCNC(=O)CC[C@H](NC(=O)CCCCCCCCCOc1ccc(C(=O)O)cc1)C(=O)O)C(=O)NCC(=O)NCC(=O)N1CCC[C@H]1C(=O)N[C@@H](CO)C(=O)N[C@@H](CO)C(=O)NCC(=O)N[C@@H](C)C(=O)N1CCC[C@H]1C(=O)N1CCC[C@H]1C(=O)N1CCC[C@H]1C(=O)N[C@@H](CO)C(N)=O)[C@@H](C)CC)[C@@H](C)CC [Example 308] | > 9950 nM | > 9950 nM | 92.2% | 98% | 0.689 nM | 117% | 0.0551 nM |  |  |  |  |  |  |  | 
CC[C@H](C)[C@H](NC(=O)[C@H](CC(C)C)NC(=O)[C@](C)(Cc1ccc(O)cc1)NC(=O)[C@@H](CCC(=O)O)NC(=O)[C@@H](NC(=O)[C@H](Cc1ccccc1)NC(=O)[C@H](CCCCNC(=O)COCCOCCNC(=O)COCCOCCNC(=O)CC[C@H](NC(=O)CCCCCCCCCOc1ccc(C(=O)O)cc1)C(=O)O)NC(=O)C(C)(C)NC(=O)[C@H](CCC(N)=O)NC(=O)[C@H](C)NC(=O)[C@H](CCCCNC(=O)COCCOCCNC(=O)COCCOCCNC(=O)CC[C@H](NC(=O)CCCCCCCCCOc1ccc(C(=O)O)cc1)C(=O)O)NC(=O)[C@H](CCCN)NC(=O)[C@H](CC(=O)O)NC(=O)[C@H](CC(C)C)NC(=O)[C@](C)(CC(C)C)NC(=O)[C@@H](NC(=O)C(C)(C)NC(=O)[C@@H](NC(=O)[C@H](CC(=O)O)NC(=O)[C@H](CO)NC(=O)[C@@H](NC(=O)[C@](C)(Cc1ccccc1F)NC(=O)[C@@H](NC(=O)CNC(=O)[C@H](CCC(=O)O)NC(=O)C(C)(C)NC(=O)[C@@H](N)Cc1ccc(O)cc1)[C@@H](C)O)[C@@H](C)O)C(C)C)[C@@H](C)CC)[C@@H](C)CC)C(=O)N[C@@H](CCC(=O)O)C(=O)NCC(=O)NCC(=O)N1CCC[C@H]1C(=O)N[C@@H](CO)C(=O)N[C@@H](CO)C(=O)NCC(=O)N[C@@H](C)C(=O)N1CCC[C@H]1C(=O)N1CCC[C@H]1C(=O)N1CCC[C@H]1C(=O)N[C@@H](CO)C(N)=O [Example 319] | > 9950 nM | > 9950 nM | 114% | 100% | 0.18 nM | 98.1% | 0.0196 nM | 92.5% |  |  |  |  |  |  | 
CCCCCCCCCCCC(=O)N[C@@H](CCC(=O)NCCOCCOCC(=O)NCCOCCOCC(=O)NCCCC[C@H](NC(=O)[C@H](CCCN)NC(=O)[C@H](CC(=O)O)NC(=O)[C@H](CC(C)C)NC(=O)[C@](C)(CC(C)C)NC(=O)[C@@H](NC(=O)[C@H](CO)NC(=O)[C@H](Cc1ccc(OC)cc1)NC(=O)[C@H](CC(=O)O)NC(=O)[C@H](CO)NC(=O)[C@@H](NC(=O)[C@](C)(Cc1ccccc1F)NC(=O)[C@@H](NC(=O)CNC(=O)[C@H](CCC(=O)O)NC(=O)C(C)(C)NC(=O)[C@@H](N)Cc1ccc(O)cc1)[C@@H](C)O)[C@@H](C)O)[C@@H](C)CC)C(=O)N[C@@H](C)C(=O)N[C@@H](CCC(N)=O)C(=O)NC(C)(C)C(=O)N[C@@H](CCC(=O)O)C(=O)N[C@@H](Cc1ccccc1)C(=O)N[C@H](C(=O)N[C@H](CCC(=O)O)C(=O)N[C@@](C)(Cc1ccc(O)cc1)C(=O)N[C@@H](CC(C)C)C(=O)N[C@H](C(=O)N[C@@H](CCCCNC(=O)COCCOCCNC(=O)COCCOCCNC(=O)CC[C@H](NC(=O)CCCCCCCCCCC)C(=O)O)C(=O)NCC(=O)NCC(=O)N1CCC[C@H]1C(=O)N[C@@H](CO)C(=O)N[C@@H](CO)C(=O)NCC(=O)N[C@@H](C)C(=O)N1CCC[C@H]1C(=O)N1CCC[C@H]1C(=O)N1CCC[C@H]1C(=O)N[C@@H](CO)C(N)=O)[C@@H](C)CC)[C@@H](C)CC)C(=O)O [Example 290] |  |  |  |  |  |  |  |  | > 9950 nM | > 9950 nM | 109% | 0.878 nM | 93.4% |  | 
CC[C@H](C)[C@H](NC(=O)[C@H](CC(C)C)NC(=O)[C@](C)(Cc1ccc(O)cc1)NC(=O)[C@@H](CCC(=O)O)NC(=O)[C@@H](NC(=O)[C@H](Cc1ccccc1)NC(=O)[C@H](CCC(=O)O)NC(=O)C(C)(C)NC(=O)[C@H](CCC(N)=O)NC(=O)[C@H](C)NC(=O)[C@H](CCCCNC(=O)COCCOCCNC(=O)COCCOCCNC(=O)CCCCCCCCCOc1ccc(C(=O)O)cc1)NC(=O)[C@H](CCCN)NC(=O)[C@H](CC(=O)O)NC(=O)[C@H](CC(C)C)NC(=O)[C@](C)(CC(C)C)NC(=O)[C@@H](NC(=O)C(C)(C)NC(=O)[C@@H](NC(=O)[C@H](CC(=O)O)NC(=O)[C@H](CO)NC(=O)[C@@H](NC(=O)[C@](C)(Cc1ccccc1F)NC(=O)[C@@H](NC(=O)CNC(=O)[C@H](CCC(=O)O)NC(=O)C(C)(C)NC(=O)[C@@H](N)Cc1ccc(O)cc1)[C@@H](C)O)[C@@H](C)O)C(C)C)[C@@H](C)CC)[C@@H](C)CC)C(=O)N[C@@H](CCCCNC(=O)COCCOCCNC(=O)COCCOCCNC(=O)CCCCCCCCCOc1ccc(C(=O)O)cc1)C(=O)NCC(=O)NCC(=O)N1CCC[C@H]1C(=O)N[C@@H](CO)C(=O)N[C@@H](CO)C(=O)NCC(=O)N[C@@H](C)C(=O)N1CCC[C@H]1C(=O)N1CCC[C@H]1C(=O)N1CCC[C@H]1C(=O)N[C@@H](CO)C(N)=O [Example 397] |  | > 9950 nM |  | 95.8% | 0.166 nM | 94.6% | 0.0293 nM |  |  |  |  |  |  | > 9950 nM | 84.5%
